According to PubChem BioAssay (NCI):
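GI50 = concentration required for 50% inhibition of growth. TGI is the concentration that stops growth completely.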

Legend:
Experiment in all cases: inhibition of tumour cell growth, NCI panel, 384-well format
[1] = system: NCI-H460 NSCLC
[2] = system: EKVX NSCLC
[3] = system: HS 578T breast
[4] = system: BT-549 breast
[5] = system: HT29 colon
[6] = system: RPMI-8226 leukemia
[7] = system: UO-31 renal
[8] = system: SK-MEL-28 melanoma
[9] = system: LOX IMVI melanoma
[10] = system: RXF 393 renal
[11] = system: SR leukemia
[12] = system: OVCAR-5 ovarian
[13] = system: CAKI-1 renal
[14] = system: MDA-MB-435 melanoma
[15] = system: MDA-MB-468 breast
[16] = system: OVCAR-8 ovarian
[17] = system: HOP-92 NSCLC
[18] = system: NCI/ADR-RES ovarian
[19] = system: A549 NSCLC
[20] = system: OVCAR-4 ovarian
[21] = system: SF-295 CNS
[22] = system: CCRF-CEM leukemia
[23] = system: T-47D breast
[24] = system: A498 renal
[25] = system: MALME-3M melanoma
[26] = system: MCF7 breast
[27] = system: SN12C renal
[28] = system: K-562 leukemia
[29] = system: UACC-257 melanoma
[30] = system: HCT-15 colon
[31] = system: SNB-75 CNS
[32] = system: PC-3 prostate
[33] = system: ACHN renal
[34] = system: HCC-2998 colon
[35] = system: U251 glioblastoma
[36] = system: NCI-H522 lung
[37] = system: SF-268 CNS
[38] = system: SK-MEL-2 melanoma
[39] = system: SNB-19 CNS
[40] = system: COLO 205 colon
[41] = system: SK-MEL-5 melanoma
[42] = system: NCI-H23 lung
[43] = system: TK-10 renal
[44] = system: 786-0 renal
[45] = system: M14 melanoma
[46] = system: MOLT-4 leukemia
[47] = system: HCT-116 colon

## COc1nn(C)cc1Nc1nccc(-c2c[nH]c3c(NC(=O)[C@@H](C)N4CCN(C)CC4)cccc23)n1
[1]
  GI50: 25.4 µM
  TGI: > 77 µM
[2]
  GI50: 18.7 µM
  TGI: 49.5 µM
[3]
  GI50: 13 µM
  TGI: 25.9 µM
[4]
  GI50: 17.2 µM
  TGI: 32.4 µM
[5]
  GI50: 17.7 µM
  TGI: 32.8 µM
[6]
  GI50: 11.2 µM
  TGI: 26.6 µM
[7]
  GI50: 17.3 µM
  TGI: 32.5 µM
[8]
  GI50: 26.9 µM
  TGI: > 66.1 µM
[9]
  GI50: 15.1 µM
  TGI: 28.4 µM
[10]
  GI50: 14.9 µM
  TGI: 30.6 µM
[11]
  GI50: 9.69 µM
  TGI: 21.5 µM
[12]
  GI50: 25.1 µM
  TGI: 65.2 µM
[13]
  GI50: 11.7 µM
  TGI: 28.6 µM
[14]
  GI50: 13.5 µM
  TGI: 30.8 µM
[15]
  GI50: 15.1 µM
  TGI: 30.9 µM
[16]
  GI50: 45.1 µM
  TGI: > 76.3 µM
[17]
  GI50: 20.4 µM
  TGI: 47.6 µM
[18]
  GI50: 45.4 µM
  TGI: > 100 µM
[19]
  GI50: 25.7 µM
  TGI: > 59.9 µM
[20]
  GI50: 30.2 µM
  TGI: > 62.1 µM
[21]
  GI50: 28.1 µM
  TGI: > 61.6 µM
[22]
  GI50: 15.9 µM
  TGI: 29.4 µM
[23]
  GI50: 29 µM
  TGI: > 89.4 µM
[24]
  GI50: 14.2 µM
  TGI: > 60.4 µM
[25]
  GI50: 14.9 µM
  TGI: 29.2 µM
[26]
  GI50: 18 µM
  TGI: > 71.9 µM
[27]
  GI50: 26 µM
  TGI: > 100 µM
[28]
  GI50: 10.5 µM
  TGI: 26.5 µM
[29]
  GI50: 16.9 µM
  TGI: 30.7 µM
[30]
  GI50: 18.7 µM
  TGI: 51.7 µM
[31]
  GI50: 17.7 µM
  TGI: 32 µM
[32]
  GI50: 23.1 µM
  TGI: 86 µM
[33]
  GI50: 21.3 µM
  TGI: > 67.2 µM
[34]
  GI50: 19.5 µM
  TGI: 37.3 µM
[35]
  GI50: 27.8 µM
  TGI: 75.8 µM
[36]
  GI50: 10.2 µM
  TGI: 26.5 µM
[37]
  GI50: 18.4 µM
  TGI: 37 µM
[38]
  GI50: 14.7 µM
  TGI: 29.5 µM
[39]
  GI50: 41.2 µM
  TGI: > 100 µM
[40]
  GI50: 20.5 µM
  TGI: 36.9 µM
[41]
  GI50: 14.5 µM
  TGI: 28.3 µM
[42]
  GI50: 17.4 µM
  TGI: 42.3 µM
[43]
  GI50: 20.5 µM
  TGI: > 60 µM
[44]
  GI50: 18.4 µM
  TGI: 41.5 µM
[45]
  GI50: 16.1 µM
  TGI: 31.2 µM
[46]
  GI50: 13.2 µM
  TGI: 26.4 µM
[47]
  GI50: 19.8 µM
  TGI: 43.2 µM
